Read-outs that look alike come from different tables or passages of the source.

The target in assay [1] is West Nile Virus (WNV) NS2B-NS3 protease (West Nile virus (WNV), UniProt P06935). Put plainly: WNV Protease Inhibition Assay. It is filed as biochemical. The source says: WNV Protease Inhibition Assay
The test system of assay [2] is ZIKV replicon in Vero cells. Put plainly: ZIKV Replication Inhibition Assay (replicon, NanoLuc). The note with it: Zika virus, Vero, 72 h, read-out: Zika Replicon EC50.
Where [3] appears, read: 2 nM protease, 10 μM pERTKR-AMC substrate, read-out: WNV Protease IC50.

Sequence of West Nile Virus (WNV) NS2B-NS3 protease (P06935 1502-1679 limits assumed): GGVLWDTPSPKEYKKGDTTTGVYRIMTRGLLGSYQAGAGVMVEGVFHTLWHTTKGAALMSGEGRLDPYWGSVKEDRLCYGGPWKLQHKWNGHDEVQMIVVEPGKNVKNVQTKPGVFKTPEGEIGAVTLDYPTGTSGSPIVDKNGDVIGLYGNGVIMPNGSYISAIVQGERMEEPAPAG
Sequence of West Nile Virus (WNV) NS2B-NS3 protease (P06935 1371-1501 partner limits assumed): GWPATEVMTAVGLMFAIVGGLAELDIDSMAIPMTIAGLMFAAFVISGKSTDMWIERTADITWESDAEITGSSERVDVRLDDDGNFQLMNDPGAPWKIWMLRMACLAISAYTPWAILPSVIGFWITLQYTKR

As a reminder, the IC50 is the concentration needed to halve the response being measured. A word on the EC50: it is the concentration needed to bring the measured effect to its halfway point. `COc1ncncc1-c1ccc(C[n+]2cc([N-]C(=O)Nc3cccc(C(F)(F)F)c3)on2)cc1` [Example 62, (3-(4-(4-methoxypyrimidin-5-yl)benzyl)-1,2,3-oxadiazol-3-ium-5-yl)((3-(trifluoromethyl)phenyl)carbamoyl)amide]: in assay [1] (setting [3]), the IC50 is below 100 nM. The EC50 in assay [2] was in the range of 100 to 1000 nM.

In the case of `COc1cc(-c2ccc(C[n+]3cc([N-]C(=O)Nc4cccc(C(F)(F)F)c4)on3)cc2)ccn1` [Example 63, (3-(4-(2-methoxypyridin-4-yl)benzyl)-1,2,3-oxadiazol-3-ium-5-yl)((3-(trifluoromethyl)phenyl)carbamoyl)amide], the IC50 in assay [1] is 100 to 1000 nM. In assay [2], the EC50 fell in the range of 100 to 1000 nM.

For `O=C([N-]c1c[n+](Cc2ccc(-c3ccnc(O)c3)cc2)no1)Nc1cccc(C(F)(F)F)c1` [Example 64, (3-(4-(2-hydroxypyridin-4-yl)benzyl)-1,2,3-oxadiazol-3-ium-5-yl)((3-(trifluoromethyl)phenyl)carbamoyl)amide], in assay [1] (setting [3]), the IC50 is below 100 nM. The EC50 in assay [2] lay within 100 to 1000 nM.

For the compound `O=C([N-]c1c[n+](Cc2ccc(-c3ccncc3)cc2)no1)Nc1cncc(C(F)(F)F)c1` [Example 67, (3-(4-(pyridin-4-yl)benzyl)-1,2,3-oxadiazol-3-ium-5-yl)((5-(trifluoromethyl)pyridin-3-yl)carbamoyl)amide], in assay [1], the IC50 lay in the range of 100 to 1000 nM. Further, the EC50 in assay [2] lay within 100 to 1000 nM.

`C[C@H](c1ccc(Br)cc1)[n+]1cc([N-]C(=O)Nc2cccc(C(F)(F)F)c2)on1` [Example 68, (R)-(3-(1-(4-bromophenyl)ethyl)-1,2,3-oxadiazol-3-ium-5-yl)((3-(trifluoromethyl)phenyl)carbamoyl)amide]: in assay [1], the IC50 is 1000 to 20000 nM. For the same compound, the EC50 in assay [2] fell in the range of 1000 to 20000 nM.

The compound `C[C@@H](c1ccc(Br)cc1)[n+]1cc([N-]C(=O)Nc2cccc(C(F)(F)F)c2)on1` [Example 69, (S)-(3-(1-(4-bromophenyl)ethyl)-1,2,3-oxadiazol-3-ium-5-yl)((3-(trifluoromethyl)phenyl)carbamoyl)amide] gave an IC50 in assay [1] of 1000 to 20000 nM. The EC50 in assay [2] was 100 to 1000 nM.

On to `C[C@H](c1ccc(-c2cncnc2)cc1)[n+]1cc([N-]C(=O)Nc2cccc(C(F)(F)F)c2)on1` [Example 72, (R)-(3-(1-(4-(pyrimidin-5-yl)phenyl)ethyl)-1,2,3-oxadiazol-3-ium-5-yl)((3-(trifluoromethyl)phenyl)carbamoyl)amide], for which, in assay [1], the IC50 is 100 to 1000 nM. Besides, in assay [2], the EC50 fell in the range of 100 to 1000 nM.

In the case of `C[C@H](c1ccc(Br)cc1)[n+]1cc([N-]C(=O)Nc2cncc(C(F)(F)F)c2)on1` [Example 73, (R)-(3-(1-(4-bromophenyl)ethyl)-1,2,3-oxadiazol-3-ium-5-yl)((5-(trifluoromethyl)pyridin-3-yl)carbamoyl)amide], the IC50 in assay [1] fell in the range of 1000 to 20000 nM. Besides, the EC50 in assay [2] lay within 1000 to 20000 nM.

Take `C[C@@H](c1ccc(-c2cncnc2)cc1)[n+]1cc([N-]C(=O)Nc2cccc(C(F)(F)F)c2)on1` [Example 74, (S)-(3-(1-(4-(pyrimidin-5-yl)phenyl)ethyl)-1,2,3-oxadiazol-3-ium-5-yl)((3-(trifluoromethyl)phenyl)carbamoyl)amide]: the 50% inhibitory concentration (IC50) in assay [1] (setting [3]) was below 100 nM. For the same compound, the EC50 in assay [2] was 100 to 1000 nM.

As to `C[C@H](c1ccc(-c2cncnc2)cc1)[n+]1cc([N-]C(=O)Nc2cncc(C(F)(F)F)c2)on1` [Example 75, (R)-(3-(1-(4-(pyrimidin-5-yl)phenyl)ethyl)-1,2,3-oxadiazol-3-ium-5-yl)((5-(trifluoromethyl)pyridin-3-yl)carbamoyl)amide], in assay [1] (setting [3]), the IC50 was below 100 nM. The EC50 in assay [2] lay within 100 to 1000 nM.

Consider `O=C([N-]c1c[n+](Cc2ccc(-c3cncnc3)cn2)no1)Nc1cncc(C(F)(F)F)c1` [Example 125, (3-((5-(pyrimidin-5-yl)pyridin-2-yl)methyl)-1,2,3-oxadiazol-3-ium-5-yl)((5-(trifluoromethyl)pyridin-3-yl)carbamoyl)amide], for which the IC50 in assay [1] was 100 to 1000 nM. In addition, the EC50 in assay [2] fell in the range of 100 to 1000 nM.

Take `Cc1noc(C)c1-c1ccc(C[n+]2cc([N-]C(=O)Nc3cncc(C(F)(F)F)c3)on2)nc1` [Example 126, (3-((5-(3,5-dimethylisoxazol-4-yl)pyridin-2-yl)methyl)-1,2,3-oxadiazol-3-ium-5-yl)((5-(trifluoromethyl)pyridin-3-yl)carbamoyl)amide]: the IC50 in assay [1] (setting [3]) is below 100 nM. The EC50 in assay [2] is below 100 nM.

The compound `Cc1noc(C)c1-c1ccc(C[n+]2cc([N-]C(=O)Nc3cncc(C(F)(F)F)c3)on2)cc1` [Example 127, (3-(4-(3,5-dimethylisoxazol-4-yl)benzyl)-1,2,3-oxadiazol-3-ium-5-yl)((5-(trifluoromethyl)pyridin-3-yl)carbamoyl)amide] had an IC50 in assay [1] of 100 to 1000 nM. The EC50 in assay [2] lay in the range of 100 to 1000 nM.

In assay [1], `Cc1cnncc1-c1ccc(C[n+]2cc([N-]C(=O)Nc3cncc(C(F)(F)F)c3)on2)nc1` [Example 128, (3-((5-(5-methylpyridazin-4-yl)pyridin-2-yl)methyl)-1,2,3-oxadiazol-3-ium-5-yl)((5-(trifluoromethyl)pyridin-3-yl)carbamoyl)amide] registered an IC50 of 100 to 1000 nM. Besides, in assay [2], the EC50 lay within 1000 to 20000 nM.

On to `Cc1cnncc1-c1ccc(C[n+]2cc([N-]C(=O)Nc3cccc(C(F)(F)F)c3)on2)nc1` [Example 129, (3-((5-(5-methylpyridazin-4-yl)pyridin-2-yl)methyl)-1,2,3-oxadiazol-3-ium-5-yl)((3-(trifluoromethyl)phenyl)carbamoyl)amide], for which the IC50 in assay [1] (setting [3]) was below 100 nM. Moreover, in assay [2], the EC50 was in the range of 100 to 1000 nM.

For the compound `Cc1ncnc(C)c1-c1ccc(C[n+]2cc([N-]C(=O)Nc3cccc(C(F)(F)F)c3)on2)nc1` [Example 130, (3-((5-(4,6-dimethylpyrimidin-5-yl)pyridin-2-yl)methyl)-1,2,3-oxadiazol-3-ium-5-yl)((3-(trifluoromethyl)phenyl)carbamoyl)amide], the IC50 in assay [1] (setting [3]) was below 100 nM. Moreover, the EC50 in assay [2] was below 100 nM.

For `O=C([N-]c1c[n+](Cc2ccc(-c3cncnc3C(F)(F)F)cn2)no1)Nc1cccc(C(F)(F)F)c1` [Example 131, ((3-(trifluoromethyl)phenyl)carbamoyl)(3-((5-(4-(trifluoromethyl)pyrimidin-5-yl)pyridin-2-yl)methyl)-1,2,3-oxadiazol-3-ium-5-yl)amide], the IC50 in assay [1] (setting [3]) was below 100 nM. The EC50 in assay [2] was below 100 nM.

In turn, `Cc1ncnc(C)c1-c1ccc(C[n+]2cc([N-]C(=O)Nc3cncc(C(F)(F)F)c3)on2)nc1` [Example 132, (3-((5-(4,6-dimethylpyrimidin-5-yl)pyridin-2-yl)methyl)-1,2,3-oxadiazol-3-ium-5-yl)((5-(trifluoromethyl)pyridin-3-yl)carbamoyl)amide] returned an IC50 in assay [1] of 100 to 1000 nM. Besides, the EC50 in assay [2] is 100 to 1000 nM.

As to `COc1ncc(-c2ccc(C[n+]3cc([N-]C(=O)Nc4cncc(C(F)(F)F)c4)on3)nc2)c(C)n1` [Example 133, (3-((5-(2-methoxy-4-methylpyrimidin-5-yl)pyridin-2-yl)methyl)-1,2,3-oxadiazol-3-ium-5-yl)((5-(trifluoromethyl)pyridin-3-yl)carbamoyl)amide], the IC50 in assay [1] lay within 100 to 1000 nM. Further, the EC50 in assay [2] was 100 to 1000 nM.

As for `COc1ncc(-c2ccc(C[n+]3cc([N-]C(=O)Nc4cccc(C(F)(F)F)c4)on3)nc2)c(C)n1` [Example 134, (3-((5-(2-methoxy-4-methylpyrimidin-5-yl)pyridin-2-yl)methyl)-1,2,3-oxadiazol-3-ium-5-yl)((3-(trifluoromethyl)phenyl)carbamoyl)amide], the IC50 in assay [1] (setting [3]) was below 100 nM. Also, the EC50 in assay [2] was below 100 nM.

As to `COc1ncnc(C)c1-c1ccc(C[n+]2cc([N-]C(=O)Nc3cccc(C(F)(F)F)c3)on2)nc1` [Example 135, (3-((5-(4-methoxy-6-methylpyrimidin-5-yl)pyridin-2-yl)methyl)-1,2,3-oxadiazol-3-ium-5-yl)((3-(trifluoromethyl)phenyl)carbamoyl)amide], the IC50 in assay [1] (setting [3]) is below 100 nM. Moreover, in assay [2], the EC50 was below 100 nM.

In turn, `COc1ncnc(C)c1-c1ccc(C[n+]2cc([N-]C(=O)Nc3cncc(C(F)(F)F)c3)on2)nc1` [Example 136, (3-((5-(4-methoxy-6-methylpyrimidin-5-yl)pyridin-2-yl)methyl)-1,2,3-oxadiazol-3-ium-5-yl)((5-(trifluoromethyl)pyridin-3-yl)carbamoyl)amide] returned an IC50 in assay [1] of 100 to 1000 nM. In addition, the concentration for a half-maximal effect (EC50) in assay [2] lay in the range of 100 to 1000 nM.

`O=C([N-]c1c[n+](Cc2ccc(-c3cncnc3C(F)(F)F)cn2)no1)Nc1cncc(C(F)(F)F)c1` [Example 137, ((5-(trifluoromethyl)pyridin-3-yl)carbamoyl)(3-((5-(4-(trifluoromethyl)pyrimidin-5-yl)pyridin-2-yl)methyl)-1,2,3-oxadiazol-3-ium-5-yl)amide]: the IC50 in assay [1] (setting [3]) was below 100 nM. Also, in assay [2], the EC50 is below 100 nM.

Regarding `Cc1ncccc1-c1ccc(C[n+]2cc([N-]C(=O)Nc3cccc(C(F)(F)F)c3)on2)nc1` [Example 138, (3-((2′-methyl-[3,3′-bipyridin]-6-yl)methyl)-1,2,3-oxadiazol-3-ium-5-yl)((3-(trifluoromethyl)phenyl)carbamoyl)amide], the IC50 in assay [1] (setting [3]) was below 100 nM. The EC50 in assay [2] was below 100 nM.

For the compound `Cc1ccncc1-c1ccc(C[n+]2cc([N-]C(=O)Nc3cccc(C(F)(F)F)c3)on2)nc1` [Example 139, (3-((4′-methyl-[3,3′-bipyridin]-6-yl)methyl)-1,2,3-oxadiazol-3-ium-5-yl)((3-(trifluoromethyl)phenyl)carbamoyl)amide], the IC50 in assay [1] (setting [3]) was below 100 nM. Further, the EC50 in assay [2] was below 100 nM.

In assay [1], `Cc1ncn(C)c1-c1ccc(C[n+]2cc([N-]C(=O)Nc3cncc(C(F)(F)F)c3)on2)nc1` [Example 140, (3-((5-(1,4-dimethyl-1H-imidazol-5-yl)pyridin-2-yl)methyl)-1,2,3-oxadiazol-3-ium-5-yl)((5-(trifluoromethyl)pyridin-3-yl)carbamoyl)amide] came in with an IC50 of 100 to 1000 nM. The EC50 in assay [2] lay in the range of 1000 to 20000 nM.

Source of the values: patent US20250353853A1, “FLAVIVIRUS INHIBITORS” (IRBM S.P.A., priority 2022, published 2025).
